Assay results taken from paper PMC6788984, “High-potency ligands for DREADD imaging and activation in rodents and monkeys” (Nature Communications, 2019).
Values joined by “and” are separate entries in the source; they are usually repeats but may differ in a detail not shown here. Identical values can stand only once. Like-named read-outs stand apart in the source and are kept apart here.

Columns and labels:
hM3Dq [1] = target: T1, hM3Dq (Homo sapiens, UniProt P20309, A239G/Y149C); experiment: Intracellular Ca2+ assay (GCaMP6f) in HEK-293 cells transfected with hM3Dq; format: cell-based; design: host or cells: HEK-293; details: for hM3Dq activation, concentration-response points: replicates; for EC50: fluorescent assay in HEK-293 cells
Description: (§1) The indicated amount of cDNA was transfected into HEK-293 cells using polyethylenimine (PEI; Sigma-Aldrich) in a 1–2 DNA:PEI ratio. Cell harvesting for radioligand binding experiments or signaling assays were performed approximately 48 h after transfection.
Intracellular Ca^2+ concentration was monitored using the fluorescent Ca^2+ biosensor GCaMP6f. […] The net change in intracellular Ca^2+ concentration was expressed as F − F0 where F is the fluorescence at a given concentration of ligand and F0 is the average of the baseline values (fluorescence values of buffer-treated wells).

hM4Di = target: T2, hM4Di (Homo sapiens, UniProt P08173, A203G/Y113C); experiment: BRET Galpha-o1 protein activation assay in HEK-293 cells transfected with hM4Di; format: cell-based; design: host or cells: HEK-293; details: for hM4Di activation, concentration-response points: replicates; for EC50: BRET-based assay in HEK-293 cells
T2 sequence (P08173 1-479 Y113C/A203G): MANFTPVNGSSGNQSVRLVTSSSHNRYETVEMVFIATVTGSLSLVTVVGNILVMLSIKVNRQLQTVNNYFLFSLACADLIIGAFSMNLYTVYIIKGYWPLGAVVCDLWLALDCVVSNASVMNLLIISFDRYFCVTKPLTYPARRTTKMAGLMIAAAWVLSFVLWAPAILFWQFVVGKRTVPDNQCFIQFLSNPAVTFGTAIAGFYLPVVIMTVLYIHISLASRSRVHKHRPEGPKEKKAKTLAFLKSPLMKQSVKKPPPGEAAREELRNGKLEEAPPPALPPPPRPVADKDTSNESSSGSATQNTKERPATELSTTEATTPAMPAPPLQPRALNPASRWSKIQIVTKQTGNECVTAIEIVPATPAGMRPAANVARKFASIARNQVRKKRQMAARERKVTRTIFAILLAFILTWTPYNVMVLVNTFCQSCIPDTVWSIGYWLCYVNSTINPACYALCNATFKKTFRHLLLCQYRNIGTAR
Description: as §1
BRET assays were performed to detect receptor ligand-induced Gαo1 protein activation. […] Forty-eight hour after transfection cells were harvested, washed and resuspended in phosphate-buffered saline (PBS). Approximately, 200,000 cells/well were distributed in 96-well plates, and 5 µM Coelenterazine H (substrate for luciferase) was added to each well. Five minutes after addition of Coelenterazine H, ligands were added to each well. […] Results were calculated for the BRET change (BRET ratio for the corresponding drug minus BRET ratio in the absence of the drug) 5 min after the addition of the ligands.

hM3Dq [2] = target: T1, hM3Dq
Description: Wild-type mice (C57BL/6J) were ordered from Jackson Laboratories and rats (Sprague–Dawley) were ordered from Charles River. Rodents were male and ordered at ~6 weeks of age. Transgenic mice were bred at NIDA breeding facility. […] Three male rhesus monkeys (Macaca mulatta) weighed 8–12 kg. All experiments and procedures complied with all relevant ethical regulations for animal testing and research and followed NIH guidelines and were approved by each institute’s animal care and use committees.
Ten minutes after injection, animals were placed in an open field arena (Opto-varimex ATM3, Columbus Instruments) and their locomotor activity was tracked during 60 min as infrared beam crossings and traveled distance was converted to cm. Animals were repeatedly tested on consecutive sessions (after an initial habituation session with no drug treatment) in a counterbalanced design.

[3] = Brain and serum concentrations in mice after IP injection (LC-MS/MS); format: in vivo, mouse; details: for brain/serum concentration ratio: 1 mg kg-1 IP; for Kp: C57BL/6J, mouse, brain/serum, ip, 0.1 mg kg-1, mice, read-out: brain/serum concentration ratio; for Kp / brain to serum concentration ratio / brain concentration, mean / serum concentration, mean: 0.1 mg kg-1 IP; for brain to serum concentration ratio: 30 min
Description: Monkey blood and CSF samples were collected from totally implanted subcutaneous access ports (Access Technologies, Virginia), connected to catheters indwelling in the femoral artery or intrathecal space of the spinal column, respectively. Rodent blood samples and brains were collected immediately following sacrifice at the indicated time points after intraperitoneal injection (10 ml kg^−1) in buffered saline. CSF was immediately frozen on dry ice and stored at −80 °C. Blood samples were allowed to coagulate for 15 min and then centrifuged at 4 °C for 15 min. Serum was collected from the supernatant and stored at a minimum of −30 °C until extraction. To 25 µl of serum, 5 µl of internal standard and 110 µl of methanol were added. Samples were centrifuged for 10 min at 16,200×g at 4 °C and the supernatant was transferred to the autosampler vial for analysis. Brains were cut in half and weighed prior to sample preparation. Half brains were homogenized in 490 µl of 85% ethanol: 15% water containing 0.1% formic acid and 5 µl of internal standard using a polytron homogenizer and centrifuged for 10 min at 16,200×g at 4 °C. A 300 µl of supernatant was dried under a stream of nitrogen and resuspended in 150 µl methanol. The resuspended solution was then centrifuged and 100 µl of supernatant was transferred to the autosampler vial for analysis.
Data were acquired using a Nexera XR HPLC (Shimadzu) coupled with a QTRAP 6500 (SCIEX), and was analyzed with Analyst 1.6 (SCIEX). The positive-ion mode data were obtained using multiple reaction monitoring (MRM). The instrumental source setting for curtain gas, ion spray voltage, temperature, ion source gas 1, and ion source gas 2 were 30 psi, 5500 V, 500 C, […], respectively.
Mobile phase A consisted of water containing 0.1% formic acid and mobile phase B was methanol containing 0.1% formic acid. […] The injection volume per sample was 10 μl. Samples were kept at 4 °C in the autosampler tray prior to injection.
The data were measured using standard curves and quality controls, but it was not validated to ICH guidelines. […] Quality control standards (low, middle and high) were prepared by adding the spiking standard to solution to 25 μl of serum and/or a half-brain and relative values are reported.

[4] = D1-hM3Dq mice, 0.01 to 1 mg kg-1

T1 sequence (P20309 whole entry Y149C/A239G): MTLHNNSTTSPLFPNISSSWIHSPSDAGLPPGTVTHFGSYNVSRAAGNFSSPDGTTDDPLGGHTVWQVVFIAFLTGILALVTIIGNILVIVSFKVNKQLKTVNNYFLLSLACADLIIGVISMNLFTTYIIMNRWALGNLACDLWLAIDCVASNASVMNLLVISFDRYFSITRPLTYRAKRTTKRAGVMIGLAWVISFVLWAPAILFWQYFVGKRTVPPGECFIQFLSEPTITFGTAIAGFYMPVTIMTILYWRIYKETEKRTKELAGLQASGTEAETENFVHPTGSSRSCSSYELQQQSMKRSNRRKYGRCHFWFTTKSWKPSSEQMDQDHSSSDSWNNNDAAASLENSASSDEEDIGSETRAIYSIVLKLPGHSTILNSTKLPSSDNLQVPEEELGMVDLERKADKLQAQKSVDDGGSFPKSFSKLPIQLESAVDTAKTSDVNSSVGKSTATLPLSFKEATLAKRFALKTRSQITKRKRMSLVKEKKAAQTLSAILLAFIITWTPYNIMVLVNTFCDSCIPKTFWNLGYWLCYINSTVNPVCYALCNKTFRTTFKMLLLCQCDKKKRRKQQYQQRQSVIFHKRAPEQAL

SMILES: c1ccc2c(c1)N=C(N1CCNCC1)c1ccccc1N2 [C21]
- hM3Dq activation, concentration-response points (hM3Dq [1]; Log [compound] -5): 93.1143 and 77.3513 and 111.083
- hM3Dq activation, concentration-response points (hM3Dq [1]; Log [compound] -6): 96.4744 and 82.7674 and 98.8645
- hM3Dq activation, concentration-response points (hM3Dq [1]; Log [compound] -7): 74.044 and 103.149 and 78.6539
- hM3Dq activation, concentration-response points (hM3Dq [1]; Log [compound] -8): 83.0838 and 91.1589 and 81.1662
- hM3Dq activation, concentration-response points (hM3Dq [1]; Log [compound] -9): 6.817 and 0.07299 and 9.557
- hM3Dq activation, concentration-response points (hM3Dq [1]; Log [compound] -10): -3.555 and -5.9944 and 2.166
- hM3Dq activation, concentration-response points (hM3Dq [1]; Log [compound] -11): -13.1516 and -2.046 and 1.55
- hM3Dq activation, concentration-response points (hM3Dq [1]; Log [compound] -12): -8.693 and -2.2785 and 8.813
- hM3Dq-mediated intracellular Ca2+ increases (hM3Dq [1]; transfected HEK-293 cells): potent intracellular Ca^2+ increases comparable to that of clozapine
- hM4Di activation, concentration-response points (hM4Di; Log [compound] -4): 96.8817
- hM4Di activation, concentration-response points (hM4Di; Log [compound] -4.5): 116.397
- hM4Di activation, concentration-response points (hM4Di; Log [compound] -5): 108.743 and 111.119 and 118.355
- hM4Di activation, concentration-response points (hM4Di; Log [compound] -6): 104.765 and 108.926 and 107.08
- hM4Di activation, concentration-response points (hM4Di; Log [compound] -7): 91.0167 and 106.137 and 98.8868
- hM4Di activation, concentration-response points (hM4Di; Log [compound] -8): 65.4069 and 99.8095 and 89.0469
- hM4Di activation, concentration-response points (hM4Di; Log [compound] -9): 48.391 and 67.2323 and 60.3348
- hM4Di activation, concentration-response points (hM4Di; Log [compound] -10): 22.6996 and 44.1322 and 29.3744
- hM4Di activation, concentration-response points (hM4Di; Log [compound] -12): 8.666
- hM4Di activation, concentration-response points (hM4Di; Log [compound] -15): 7.3972 and 3.296 and 3.683
- Gi/o activation, potency relative to clozapine (hM4Di; cells or tissue expressing hM4Di): less potent than clozapine
- behavior (hM3Dq [2]; D1-hM3Dq mice, 10 mg/kg): seizure-like behavior
- locomotor activity (hM3Dq [2]; D1-hM3Dq mice, 0.1 and 1 mg/kg): robust decrease of locomotor activity
- lowest dose activating hM3Dq (hM3Dq [2]; rodents (rats and mice)): 0.1 mg/kg
- brain/serum concentration ratio ([3]; mice, time 10): 0.1059
- brain/serum concentration ratio ([3]; mice, time 30): 0.2543
- brain/serum concentration ratio ([3]; mice, time 60): 0.2987
- brain/serum concentration ratio ([3]; mice, time 120): 0.4106
- brain/serum concentration ratio ([3]; mice, time 240): 0.6284
- brain/serum ratio ([3]; mice, systemic administration): low brain/serum ratios

SMILES: CCN1CCN(C2=Nc3cc(Cl)ccc3Nc3cccc(F)c32)CC1 [JHU37152, 8-Chloro-11-(4-ethylpiperazin-1-yl)-1-fluoro-5H-dibenzo[b,e][1,4]diazepine]
- EC50 (hM3Dq [1]): 5 nM
- EC50 (hM4Di): 0.5 nM
- locomotor activity (hM3Dq [2]; [4]): selectively inhibiting locomotor activity
- Kp ([3]; time 10): 3.52
- Kp ([3]; time 30): 6.76
- Kp ([3]; time 60): 5.99
- Kp ([3]; time 120): 4.52
- Kp ([3]; time 240): 3.05
- brain to serum concentration ratio ([3]; mice): ~eightfold higher in the brain than serum
- brain concentration, mean ([3]; mice, time 10): 58.5075
- serum concentration, mean ([3]; mice, time 10): 16.6091
- brain concentration, mean ([3]; mice, time 30): 52.9484
- serum concentration, mean ([3]; mice, time 30): 6.63
- brain concentration, mean ([3]; mice, time 60): 40.9216
- serum concentration, mean ([3]; mice, time 60): 6.9214
- brain concentration, mean ([3]; mice, time 120): 7.985
- serum concentration, mean ([3]; mice, time 120): 2.387
- brain concentration, mean ([3]; mice, time 240): 2.907
- serum concentration, mean ([3]; mice, time 240): 1.533

SMILES: CCN1CCN(C2=Nc3cc(Cl)ccc3Nc3c(F)cccc32)CC1 [JHU37160, 8-Chloro-11-(4-ethylpiperazin-1-yl)-4-fluoro-5H-dibenzo[b,e][1,4]diazepine]
- EC50 (hM3Dq [1]): 18.5 nM
- EC50 (hM4Di): 0.2 nM
- locomotor activity (hM3Dq [2]; [4]): selectively inhibiting locomotor activity
- Kp ([3]; time 10): 6.45
- Kp ([3]; time 30): 8.48
- Kp ([3]; time 60): 12.9
- Kp ([3]; time 120): 9.72
- Kp ([3]; time 240): 15.4
- brain to serum concentration ratio ([3]; mice): ~eightfold higher in the brain than serum
- brain concentration, mean ([3]; mice, time 10): 15.2721
- serum concentration, mean ([3]; mice, time 10): 2.637
- brain concentration, mean ([3]; mice, time 30): 9.242
- serum concentration, mean ([3]; mice, time 30): 1.58
- brain concentration, mean ([3]; mice, time 60): 8.73
- serum concentration, mean ([3]; mice, time 60): 0.7534
- brain concentration, mean ([3]; mice, time 120): 8.1596
- serum concentration, mean ([3]; mice, time 120): 0.8413
- brain concentration, mean ([3]; mice, time 240): 3.199
- serum concentration, mean ([3]; mice, time 240): 0.319
